Assays:
[1] = tested on: MCF-7 cells; experiment: Breast Cancer Cell Viability Assays (MCF-7, CellTiter-Glo); assay type: cell-based; details: 5 days' compound exposure; for IC50: Homo sapiens, MCF7, 120 h
How it was run: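 MCF-7 cells (320/well, RPMI with 10% FBS) exposed for 5 days to an eleven-point semilog series, 0.3–0.000003 μM final. Viability read by CellTiter-Glo luminescence, expressed as background-corrected percent of untreated cells.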

[2] = target: T1, ER-α in MCF-7 cells (Homo sapiens, UniProt P03372); experiment: Breast Cancer Cell ER-α In Cell Western Assay (SP1); assay type: cell-based; details: 4 or 24 hr post compound addition; for Emax: MCF7, SP1 antibody, read-out: ER-α In Cell Western Assay (SP1) Max Response; for DC50: SP1 antibody, read-out: ER-α In Cell Western Assay (SP1) IC50
T1 construct: endogenous in cells; host or cells: MCF-7
T1 sequence (P03372 1-595): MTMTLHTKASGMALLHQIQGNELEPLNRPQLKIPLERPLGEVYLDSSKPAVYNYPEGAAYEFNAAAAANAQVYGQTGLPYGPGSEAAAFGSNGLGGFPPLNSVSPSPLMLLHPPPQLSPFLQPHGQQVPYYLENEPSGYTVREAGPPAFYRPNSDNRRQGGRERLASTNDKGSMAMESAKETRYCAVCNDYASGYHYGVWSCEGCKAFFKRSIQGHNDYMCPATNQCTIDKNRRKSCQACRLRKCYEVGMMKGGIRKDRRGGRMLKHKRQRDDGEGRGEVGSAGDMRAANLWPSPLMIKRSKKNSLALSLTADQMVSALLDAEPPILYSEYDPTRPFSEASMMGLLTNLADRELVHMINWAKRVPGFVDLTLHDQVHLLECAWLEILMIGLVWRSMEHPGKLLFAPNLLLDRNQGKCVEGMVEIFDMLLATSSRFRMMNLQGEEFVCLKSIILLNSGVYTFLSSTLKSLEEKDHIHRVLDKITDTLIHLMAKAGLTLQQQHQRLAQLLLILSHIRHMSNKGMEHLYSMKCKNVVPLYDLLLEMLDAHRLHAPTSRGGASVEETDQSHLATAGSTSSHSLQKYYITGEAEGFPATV
How it was run: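 MCF-7 cells in charcoal-stripped FBS medium, treated with 11-point semilog dilutions (0.3–0.000003 μM final) for 4 or 24 h. Fixed cells immunostained with SP1 antibody (800 nm) and DRAQ5 DNA (700 nm); ER/DNA ratio expressed as % of untreated cells.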

In the case of `O=C(O)/C=C/c1ccc(/C(=C(\c2cccc(N3CCCC3)c2)C2CCC2)c2ccc3[nH]nc(F)c3c2)cc1` [Example 87, (E)-3-(4-((E)-2-Cyclobutyl-1-(3-fluoro-1H-indazol-5-yl)-2-(3-(pyrrolidin-1-yl)phenyl)vinyl)phenyl)acrylic acid], the “MCF7 Viability Assay Max Response” value [1] is reported as “++ (++ = a single % value ≧ 40%)”, the IC50 [1] is reported as at most 100 nM and the Emax [2] is reported as at least 40%. It also gave a DC50 [2] of at most 100 nM.

`N#Cc1cscc1/C(=C(\c1ccc(/C=C/C(=O)O)cc1)c1ccc2scnc2c1)C1CCC1` [Example 88, (E)-3-(4-((E)-1-(Benzo[d]thiazol-5-yl)-2-(4-cyanothiophen-3-yl)-2-cyclobutylvinyl)phenyl)acrylic acid] was tested, and the “MCF7 Viability Assay Max Response” value [1] was “++ (++ = a single % value ≧ 40%)”, the IC50 [1] was at most 100 nM and the Emax [2] was at least 40%. It also gave a DC50 [2] of at most 100 nM.

In the case of `COc1nccc(/C(=C(\c2ccc(/C=C/C(=O)O)cc2)c2ccc3[nH]nc(F)c3c2)C2CCC2)c1C` [Example 89, (E)-3-(4-((E)-2-Cyclobutyl-1-(3-fluoro-1H-indazol-5-yl)-2-(2-methoxy-3-methylpyridin-4-yl)vinyl)phenyl)acrylic acid], the “MCF7 Viability Assay Max Response” value [1] is reported as “++ (++ = a single % value ≧ 40%)”, the IC50 [1] is reported as at most 100 nM and the Emax [2] is reported as at least 40%. The DC50 [2] was at most 100 nM.

In the case of `N#Cc1cc(F)ccc1/C(=C(\c1ccc(/C=C/C(=O)O)cc1)c1ccc2scnc2c1)C1CCC1` [Example 90, (E)-3-(4-((E)-1-(Benzo[d]thiazol-5-yl)-2-(2-cyano-4-fluorophenyl)-2-cyclobutylvinyl)phenyl)acrylic acid], the “MCF7 Viability Assay Max Response” value [1] is reported as “++ (++ = a single % value ≧ 40%)”, the IC50 [1] is reported as at most 100 nM and the Emax [2] is reported as at least 40%. The DC50 [2] was at most 100 nM.

For `COc1ccc(/C(=C(\c2ccc(/C=C/C(=O)O)cc2)c2ccc3scnc3c2)C2CCC2)cc1` [Example 91, (E)-3-(4-((E)-1-(Benzo[d]thiazol-5-yl)-2-cyclobutyl-2-(4-methoxyphenyl)vinyl)phenyl)acrylic acid], the “MCF7 Viability Assay Max Response” value [1] was “++ (++ = a single % value ≧ 40%)”, the IC50 [1] was at most 100 nM and the Emax [2] was at least 40%. It also gave a DC50 [2] of at most 100 nM.

In the case of `COc1cccc(/C(=C(\c2ccc(/C=C/C(=O)O)cc2)c2ccc3scnc3c2)C2CCC2)c1` [Example 92, (E)-3-(4-((E)-1-(Benzo[d]thiazol-5-yl)-2-cyclobutyl-2-(3-methoxyphenyl)vinyl)phenyl)acrylic acid], the “MCF7 Viability Assay Max Response” value [1] is reported as “++ (++ = a single % value ≧ 40%)”, the IC50 [1] is reported as at most 100 nM and the Emax [2] is reported as at least 40%. The DC50 [2] was at most 100 nM.

In the case of `COc1ccc(/C(=C(\c2ccc(/C=C/C(=O)O)cc2)c2ccc3scnc3c2)C2CCC2)cn1` [Example 93, (E)-3-(4-((E)-1-(Benzo[d]thiazol-5-yl)-2-cyclobutyl-2-(6-methoxypyridin-3-yl)vinyl)phenyl)acrylic acid], the “MCF7 Viability Assay Max Response” value [1] is reported as “++ (++ = a single % value ≧ 40%)”, the IC50 [1] is reported as at most 100 nM and the Emax [2] is reported as at least 40%. It also gave a DC50 [2] of at most 100 nM.

In the case of `O=C(O)/C=C/c1ccc(/C(=C(\c2ccccc2F)C2CCC2)c2ccc3scnc3c2)cc1` [Example 94, (E)-3-(4-((E)-1-(Benzo[d]thiazol-5-yl)-2-cyclobutyl-2-(2-fluorophenyl)vinyl)phenyl)acrylic acid], the “MCF7 Viability Assay Max Response” value [1] is reported as “++ (++ = a single % value ≧ 40%)”, the IC50 [1] is reported as at most 100 nM and the Emax [2] is reported as at least 40%. For the same compound, the DC50 [2] was at most 100 nM.

With `N#Cc1ccc(/C(=C(\c2ccc(/C=C/C(=O)O)cc2)c2ccc3scnc3c2)C2CCC2)c(F)c1` [Example 95, (E)-3-(4-((E)-1-(Benzo[d]thiazol-5-yl)-2-(4-cyano-2-fluorophenyl)-2-cyclobutylvinyl)phenyl)acrylic acid] the “MCF7 Viability Assay Max Response” value [1] was “++ (++ = a single % value ≧ 40%)”, the IC50 [1] was at most 100 nM and the Emax [2] was at least 40%. For the same compound, the DC50 [2] was at most 100 nM.

`Cc1cc(C#N)ccc1/C(=C(\c1ccc(/C=C/C(=O)O)cc1)c1ccc2scnc2c1)C1CCC1` [Example 96, (E)-3-(4-((E)-1-(Benzo[d]thiazol-5-yl)-2-(4-cyano-2-methylphenyl)-2-cyclobutylvinyl)phenyl)acrylic acid] was tested, and the “MCF7 Viability Assay Max Response” value [1] was “++ (++ = a single % value ≧ 40%)”, the IC50 [1] was at most 100 nM and the Emax [2] was at least 40%. It also gave a DC50 [2] of at most 100 nM.

In the case of `COc1ccc(/C(=C(\c2ccc(/C=C/C(=O)O)cc2)c2ccc3scnc3c2)C2CCC2)c(C#N)c1` [Example 97, (E)-3-(4-((E)-1-(Benzo[d]thiazol-5-yl)-2-(2-cyano-4-methoxyphenyl)-2-cyclobutylvinyl)phenyl)acrylic acid], the “MCF7 Viability Assay Max Response” value [1] is reported as “++ (++ = a single % value ≧ 40%)”, the IC50 [1] is reported as at most 100 nM and the Emax [2] is reported as at least 40%. The DC50 [2] was at most 100 nM.

`Cc1cccnc1/C(=C(\c1ccc(/C=C/C(=O)O)cc1)c1ccc2scnc2c1)C1CCC1` [Example 98, (E)-3-(4-((E)-1-(Benzo[d]thiazol-5-yl)-2-cyclobutyl-2-(3-methylpyridin-2-yl)vinyl)phenyl)acrylic acid] was tested, and the “MCF7 Viability Assay Max Response” value [1] was “++ (++ = a single % value ≧ 40%)”, the IC50 [1] was at most 100 nM and the Emax [2] was at least 40%. It also gave a DC50 [2] of at most 100 nM.

`O=C(O)/C=C/c1ccc(/C(=C(\c2ncccc2F)C2CCC2)c2ccc3scnc3c2)cc1` [Example 99, (E)-3-(4-((E)-1-(Benzo[d]thiazol-5-yl)-2-cyclobutyl-2-(3-fluoropyridin-2-yl)vinyl)phenyl)acrylic acid] was tested, and the “MCF7 Viability Assay Max Response” value [1] was “++ (++ = a single % value ≧ 40%)”, the IC50 [1] was at most 100 nM and the Emax [2] was at least 40%. The DC50 [2] was at most 100 nM.

`O=C(O)/C=C/c1ccc(/C(=C(\c2ncccc2Cl)C2CCC2)c2ccc3scnc3c2)cc1` [Example 100, (E)-3-(4-((E)-1-(Benzo[d]thiazol-5-yl)-2-(3-chloropyridin-2-yl)-2-cyclobutylvinyl)phenyl)acrylic acid] was tested, and the “MCF7 Viability Assay Max Response” value [1] was “++ (++ = a single % value ≧ 40%)”, the IC50 [1] was at most 100 nM and the Emax [2] was at least 40%. For the same compound, the DC50 [2] was at most 100 nM.

With `CC/C(=C(/c1ccc(/C=C/C(=O)O)cc1)c1ccc2[nH]nc(F)c2c1)c1ccc(Cl)cc1C#N` [Example 101, (E)-3-(4-((E)-2-(4-Chloro-2-cyanophenyl)-1-(3-fluoro-1H-indazol-5-yl)but-1-en-1-yl)phenyl)acrylic acid] the “MCF7 Viability Assay Max Response” value [1] was “++ (++ = a single % value ≧ 40%)”, the IC50 [1] was at most 100 nM and the Emax [2] was at least 40%. For the same compound, the DC50 [2] was at most 100 nM.

For `CC/C(=C(/c1ccc(/C=C/C(=O)O)cc1)c1ccc2[nH]nc(F)c2c1)c1ccc(F)cc1C#N` [Example 102, (E)-3-(4-((E)-2-(2-Cyano-4-fluorophenyl)-1-(3-fluoro-1H-indazol-5-yl)but-1-en-1-yl)phenyl)acrylic acid], the “MCF7 Viability Assay Max Response” value [1] was “++ (++ = a single % value ≧ 40%)”, the IC50 [1] was at most 100 nM and the Emax [2] was at least 40%. For the same compound, the DC50 [2] was at most 100 nM.

With `CC/C(=C(/c1ccc(/C=C/C(=O)O)cc1)c1ccc2[nH]nc(F)c2c1)c1ccc(C(F)(F)F)cc1C#N` [Example 103] the “MCF7 Viability Assay Max Response” value [1] was “++ (++ = a single % value ≧ 40%)”, the IC50 [1] was at most 100 nM and the Emax [2] was at least 40%. For the same compound, the DC50 [2] was at most 100 nM.

With `CC/C(=C(/c1ccc(/C=C/C(=O)O)cc1)c1ccc2[nH]nc(F)c2c1)c1ccc(C#N)cc1F` [Example 104, (E)-3-(4-((E)-2-(4-Cyano-2-fluorophenyl)-1-(3-fluoro-1H-indazol-5-yl)but-1-en-1-yl)phenyl)acrylic acid] the “MCF7 Viability Assay Max Response” value [1] was “++ (++ = a single % value ≧ 40%)”, the IC50 [1] was at most 100 nM and the Emax [2] was at least 40%. For the same compound, the DC50 [2] was at most 100 nM.

`CC/C(=C(/c1ccc(/C=C/C(=O)O)cc1)c1ccc2[nH]nc(F)c2c1)c1ccc(C#N)cc1C` [Example 105] was tested, and the “MCF7 Viability Assay Max Response” value [1] was “++ (++ = a single % value ≧ 40%)”, the IC50 [1] was at most 100 nM and the Emax [2] was at least 40%. It also gave a DC50 [2] of at most 100 nM.

For `CC/C(=C(/c1ccc(/C=C/C(=O)O)cc1)c1ccc2[nH]nc(F)c2c1)c1ccc(C#N)cc1Cl` [Example 106, (E)-3-(4-((E)-2-(2-Chloro-4-cyanophenyl)-1-(3-fluoro-1H-indazol-5-yl)but-1-en-1-yl)phenyl)acrylic acid], the “MCF7 Viability Assay Max Response” value [1] was “++ (++ = a single % value ≧ 40%)”, the IC50 [1] was at most 100 nM and the Emax [2] was at least 40%. The DC50 [2] was at most 100 nM.

With `CC/C(=C(/c1ccc(/C=C/C(=O)O)cc1)c1ccc2[nH]nc(F)c2c1)c1ccc(OC)cc1C#N` [Example 107] the “MCF7 Viability Assay Max Response” value [1] was “++ (++ = a single % value ≧ 40%)”, the IC50 [1] was at most 100 nM and the Emax [2] was at least 40%. For the same compound, the DC50 [2] was at most 100 nM.

With `N#Cc1cc(Cl)ccc1/C(=C(\c1ccc(/C=C/C(=O)O)cc1)c1ccc2[nH]nc(F)c2c1)C1CCC1` [Example 108, (E)-3-(4-((E)-2-(4-Chloro-2-cyanophenyl)-2-cyclobutyl-1-(3-fluoro-1H-indazol-5-yl)vinyl)phenyl)acrylic acid] the “MCF7 Viability Assay Max Response” value [1] was “++ (++ = a single % value ≧ 40%)”, the IC50 [1] was at most 100 nM and the Emax [2] was at least 40%. The DC50 [2] was at most 100 nM.
